Measured values: ChEMBL document CHEMBL1909046, “DrugMatrix in vitro pharmacology data”

Legend:
Substance-K receptor = molecular target: T1, Substance-K receptor (Homo sapiens, UniProt P21452); assay type: cell membranes, CHO, Membrane; conditions: cho; further: in other assays of this panel Not Active means under 50% inhibition at 10 µM
T1 sequence (P21452 whole entry): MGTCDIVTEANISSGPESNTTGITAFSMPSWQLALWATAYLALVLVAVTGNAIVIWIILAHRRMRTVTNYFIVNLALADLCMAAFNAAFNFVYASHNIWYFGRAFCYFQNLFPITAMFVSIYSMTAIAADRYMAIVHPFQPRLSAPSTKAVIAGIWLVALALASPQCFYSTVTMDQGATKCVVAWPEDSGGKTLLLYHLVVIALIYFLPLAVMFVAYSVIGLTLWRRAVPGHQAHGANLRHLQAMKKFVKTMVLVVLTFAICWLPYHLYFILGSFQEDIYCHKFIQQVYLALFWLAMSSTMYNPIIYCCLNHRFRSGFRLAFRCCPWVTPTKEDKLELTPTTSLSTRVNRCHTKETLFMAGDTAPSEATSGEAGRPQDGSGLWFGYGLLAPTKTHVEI

[1] = molecular target: Aldo-keto reductase family 1 member B1 (Rattus norvegicus, UniProt P07943); assay type: tissue-based, Lens of camera-type eye;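 further: inhibition of aldose reductase enzyme activity, measured with DL-glyceraldehyde as the substrate; in other assays of this panel Not Active means under 50% inhibition at 10 µM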
D(4) dopamine receptor = molecular target: T2, D(4) dopamine receptor (Homo sapiens, UniProt P21917); test: DRUGMATRIX: Dopamine D4.2 radioligand binding (ligand: [3H] Spiperone); assay type: cell membranes, CHO-K1, Membrane; conditions: cho-k1; Not Active = under 50% inhibition at 10 µM
T2 sequence (P21917 whole entry): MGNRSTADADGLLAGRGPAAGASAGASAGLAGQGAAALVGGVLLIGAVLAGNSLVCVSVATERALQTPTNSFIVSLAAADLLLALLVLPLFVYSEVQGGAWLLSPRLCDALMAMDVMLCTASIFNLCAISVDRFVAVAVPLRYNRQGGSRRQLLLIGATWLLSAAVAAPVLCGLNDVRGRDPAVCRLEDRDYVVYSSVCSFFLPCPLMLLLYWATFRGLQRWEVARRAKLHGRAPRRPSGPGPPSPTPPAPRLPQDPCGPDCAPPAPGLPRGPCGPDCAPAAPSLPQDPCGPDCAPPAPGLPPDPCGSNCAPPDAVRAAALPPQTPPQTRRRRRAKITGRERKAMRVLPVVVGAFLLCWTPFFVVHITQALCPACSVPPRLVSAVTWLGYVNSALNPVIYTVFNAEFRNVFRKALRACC

[2] = molecular target: T3, Muscarinic acetylcholine receptor M5 (Homo sapiens, UniProt P08912); assay type: cell membranes, CHO-K1, Membrane; conditions: cho-k1; further: in other assays of this panel Not Active means under 50% inhibition at 10 µM
T3 sequence (P08912 whole entry): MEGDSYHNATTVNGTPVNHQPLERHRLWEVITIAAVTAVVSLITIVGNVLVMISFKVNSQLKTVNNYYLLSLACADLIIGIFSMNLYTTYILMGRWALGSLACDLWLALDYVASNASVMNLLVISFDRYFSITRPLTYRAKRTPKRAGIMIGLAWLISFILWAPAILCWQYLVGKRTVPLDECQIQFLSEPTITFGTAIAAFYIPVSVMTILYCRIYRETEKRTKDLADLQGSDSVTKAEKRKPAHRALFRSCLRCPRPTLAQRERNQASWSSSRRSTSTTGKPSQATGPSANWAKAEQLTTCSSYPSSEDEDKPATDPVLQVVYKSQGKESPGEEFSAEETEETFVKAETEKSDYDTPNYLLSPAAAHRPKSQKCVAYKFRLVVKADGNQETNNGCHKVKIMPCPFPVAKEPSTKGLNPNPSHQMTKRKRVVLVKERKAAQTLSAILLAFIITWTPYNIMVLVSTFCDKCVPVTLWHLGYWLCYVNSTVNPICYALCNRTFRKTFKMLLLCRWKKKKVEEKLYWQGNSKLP

[3] = molecular target: Matrix metalloproteinase-9 (Homo sapiens, UniProt P14780); test: biochemical; assay type: cell-based;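 further: inhibition of isolated MMP-9 enzyme activity toward a synthetic peptide substrate, from the DrugMatrix protease screening panel; in other assays of this panel Not Active means under 50% inhibition at 10 µM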
Matrix metalloproteinase-9, sequence (P14780 whole entry): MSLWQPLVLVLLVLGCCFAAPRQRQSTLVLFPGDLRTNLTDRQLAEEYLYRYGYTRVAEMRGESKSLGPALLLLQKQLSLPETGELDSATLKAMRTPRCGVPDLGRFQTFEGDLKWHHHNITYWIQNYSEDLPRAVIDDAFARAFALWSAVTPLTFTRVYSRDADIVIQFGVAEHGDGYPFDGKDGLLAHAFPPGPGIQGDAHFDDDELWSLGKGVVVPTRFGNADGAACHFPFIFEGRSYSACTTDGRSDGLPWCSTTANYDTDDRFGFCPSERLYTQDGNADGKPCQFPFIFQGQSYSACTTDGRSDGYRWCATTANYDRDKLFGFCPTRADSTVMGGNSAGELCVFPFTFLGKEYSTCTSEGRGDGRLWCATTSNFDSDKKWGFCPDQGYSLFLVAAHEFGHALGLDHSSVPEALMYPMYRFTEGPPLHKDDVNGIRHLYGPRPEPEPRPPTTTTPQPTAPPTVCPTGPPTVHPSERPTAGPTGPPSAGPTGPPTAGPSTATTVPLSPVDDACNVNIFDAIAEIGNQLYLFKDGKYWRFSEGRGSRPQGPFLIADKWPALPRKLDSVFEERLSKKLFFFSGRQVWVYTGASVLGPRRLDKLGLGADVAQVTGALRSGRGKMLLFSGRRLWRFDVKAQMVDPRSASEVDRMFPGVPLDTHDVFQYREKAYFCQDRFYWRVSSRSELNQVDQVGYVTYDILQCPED

Thromboxane-A synthase = molecular target: T4, Thromboxane-A synthase (Homo sapiens, UniProt P24557); test: biochemical; assay type: tissue-based, Platelet; conditions: platelet
T4 sequence (P24557 whole entry): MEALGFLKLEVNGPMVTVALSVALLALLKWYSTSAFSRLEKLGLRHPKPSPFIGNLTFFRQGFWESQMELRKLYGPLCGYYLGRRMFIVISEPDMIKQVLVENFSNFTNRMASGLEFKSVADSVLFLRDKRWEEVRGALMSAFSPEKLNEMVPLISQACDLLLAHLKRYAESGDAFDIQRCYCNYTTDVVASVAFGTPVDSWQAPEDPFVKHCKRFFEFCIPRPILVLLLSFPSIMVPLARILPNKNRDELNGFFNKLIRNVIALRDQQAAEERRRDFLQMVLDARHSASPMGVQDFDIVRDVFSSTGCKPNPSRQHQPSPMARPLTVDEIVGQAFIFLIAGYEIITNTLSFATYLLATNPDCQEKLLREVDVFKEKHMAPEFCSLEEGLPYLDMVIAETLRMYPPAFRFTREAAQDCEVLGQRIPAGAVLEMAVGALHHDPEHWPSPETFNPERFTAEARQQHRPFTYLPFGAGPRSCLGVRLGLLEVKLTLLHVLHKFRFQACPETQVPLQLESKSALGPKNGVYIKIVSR

Measured: IC50

CCN(CC)CCNC(=O)c1cc(S(C)(=O)=O)ccc1OC [TIAPRIDE]
Not Active: all assays above

CCCCOc1cc(CC2CNC(=O)N2)ccc1OC (configuration not stated) [RO-201724]
Not Active: all assays above
